Assay results from patent US20220096454A1, “CARBOXYLIC ACID DERIVATIVES” (Merck Patent GmbH, priority 2018, published 2022).

What was measured:
[1] = target: T1, TNKS1 (Homo sapiens, UniProt O95271); experiment: TNKS1 activity ELISA (autoparsylation assay); type: biochemical; details: GST-tagged Tnks-1 (1023-1327 aa), 10 μM bio-NAD, 1 hour at 30° C.
T1 construct: GST-tagged Tnks-1 (1023-1327 aa, prepared in-house); made in house
Procedure: (§1) Description of the TNKS1 and TNKS2 ELISA Assay
(§2) Biochemical activity testing of TNKS 1 and 2: activity ELISA (Autoparsylation assay)
(§3) For analysis of autoparsylation activity of TNKS 1 and 2 an activity ELISA is performed: In the first step GST tagged TNKS is captured on a Glutathione coated plate. Then the activity assay with biotinylated NAD is performed in the absence/presence of the compounds. During the enzymatic reaction GST tagged TNKS transfers biotinylated ADP-ribose to itself from biotinylated NAD as co-substrate. For the detection streptavidin-HRP conjugate is added that binds to the biotinylated TNKS and is thereby captured to the plates. The amount of biotinylated resp. autoparsylated TNKS is detected with a luminescence substrate for HRP. The level of the luminescence signal correlates directly with the amount of autoparsylated TNKS and therefore with activity of TNKS.
(§4) The activity ELISA is performed in 384 well Glutathione coated microtiter plates (Express capture Glutathione coated plate, Biocat, Heidelberg, Germany). The plates are pre-equilibrated with PBS. […] The plates are washed 3 times with PBS-Tween-20. The wells are blocked by incubation at room temperature for 20 minutes with 50 μl blocking buffer (PBS, 0.05% Tween-20, 0.5% BSA). Afterwards the plates are washed 3 times with PBS-Tween-20. […] The reaction is stopped by 3 times washing with PBS-Tween-20. For the detection 50 μl of 20 ng/μl Streptavidin, HRP conjugate (MoBiTec, Göttingen, Germany) in PBS/0.05% Tween-20/0.01% BSA are added and the plates are incubated for 30 minutes at room temperature. After three times washing with PBS-Tween-20 50 μl of SuperSignal ELISA Femto Maximum sensitivity substrate solution (ThermoFisherScientific (Pierce), Bonn, Germany) are added. Following a 1 minute incubation at room temperature luminescence signals are measured with an Envision multimode reader (Perkin Elmer LAS Germany GmbH) at 700 nm. The full value used is the inhibitor-free reaction. […] The inhibitory values (IC50) are determined using either the program Symyx Assay Explorer® or Condosseo® from GeneData.

[2] = target: T2, TNKS2 (Homo sapiens, UniProt Q9H2K2); experiment: TNKS2 activity ELISA (autoparsylation assay); type: biochemical; details: GST-tagged Tnks-2 (873-1166 aa), 10 μM bio-NAD, 1 hour at 30° C.
T2 construct: GST-tagged Tnks-2 (873-1166 aa, prepared in-house); made in house
T2 sequence (Q9H2K2 873-1166): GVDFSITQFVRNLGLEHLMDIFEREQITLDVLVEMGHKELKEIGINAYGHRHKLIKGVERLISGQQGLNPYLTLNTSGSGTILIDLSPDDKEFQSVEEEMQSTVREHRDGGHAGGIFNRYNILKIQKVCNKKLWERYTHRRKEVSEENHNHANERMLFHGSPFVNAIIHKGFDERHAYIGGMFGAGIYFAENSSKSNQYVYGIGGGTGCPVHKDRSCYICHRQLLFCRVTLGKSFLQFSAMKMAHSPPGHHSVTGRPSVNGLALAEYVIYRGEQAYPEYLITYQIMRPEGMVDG
Procedure: as §1, §2, §3, §4

[3] = test system: Tankyrases; details: read-out: EC50 [M] TNKS cellular assay; increase of Axin2 level in colon carcinoma cell line DLD1, 24 hours
Procedure: Measurement of Cellular Inhibition of Tankyrase
Cells of the colon carcinoma cell line DLD1 are plated in 96 well plates with 1.5×10^4 cells per well. Next day, cells are treated with a serial dilution of test compound in seven steps as triplicates with a final DMSO concentration of 0.3%. […] The amount of isolated Axin2 protein is determined in a Luminex^200 machine (Luminex Corporation) according to the manufacturer's instruction by counting 100 events per well. […] As controls cells are treated with solvent alone (neutral control) and with a Tankyrase reference inhibitor IWR-2 (3E−06 M) which refers as control for maximum increase of Axin2. For analysis, the obtained data are normalized against the untreated solvent control and fitted for determination of the EC50 values using the Assay Explorer software (Accelrys).

T1 sequence (O95271 1023-1327): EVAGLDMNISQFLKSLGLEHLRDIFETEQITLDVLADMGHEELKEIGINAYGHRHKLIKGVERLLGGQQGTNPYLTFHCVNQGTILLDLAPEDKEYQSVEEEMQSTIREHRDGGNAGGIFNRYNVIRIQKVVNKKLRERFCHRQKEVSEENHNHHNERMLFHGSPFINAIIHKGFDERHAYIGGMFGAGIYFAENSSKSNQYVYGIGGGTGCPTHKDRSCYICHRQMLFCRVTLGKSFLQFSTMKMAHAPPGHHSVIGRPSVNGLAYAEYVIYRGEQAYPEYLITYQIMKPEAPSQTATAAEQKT

Which IC50 [1] does the source give for CCN(C(=O)N1CCC(C(=O)c2ccc3c(c2)ncn3C)CC1)c1ccc(C(=O)O)cc1 [Compound C31, 4-{Ethyl-[4-(1-methyl-1H-benzimidazole-5-carbonyl)-piperidine-1-carbonyl]-amino}-benzoic Acid] here?
Its IC50 is 3.5 nM.

And the IC50 [2]?
Its IC50 is 2.6 nM.

What about the EC50 [3] of the same compound?
The EC50 was 3.69e-07 M.

With CCN(C(=O)N1CCC(C(=O)c2ccc3c(c2)ncn3C)CC1)c1cccc(C(=O)O)c1 [Compound C33, 3-{Ethyl-[4-(1-methyl-1H-benzimidazole-5-carbonyl)-piperidine-1-carbonyl]-amino}-benzoic Acid] as the compound, how does the IC50 [1] read?
Its IC50 is 3.3 nM.

And the IC50 [2]?
Its IC50 is 1.5 nM.

And the EC50 [3]?
Its EC50 is 3.6e-06 M.

Which results are given for CN(C(=O)N1CCC(C(=O)c2ccc3nnn(C)c3c2)CC1)c1ccc(C(=O)O)cc1 [Compound C34, 4-{Methyl-[4-(3-methyl-3H-benzotriazole-5-carbonyl)-piperidine-1-carbonyl]-amino}-benzoic Acid]?
IC50 [1]: 2.6 nM; IC50 [2]: 1.1 nM; EC50 [3]: 3.2e-06 M

What does the source list for CCN(C(=O)N1CCC(C(=O)c2ccc3nnn(C)c3c2)CC1)c1ccc(C(=O)O)cc1 [Compound C35, 4-{Ethyl-[4-(3-methyl-3H-benzotriazole-5-carbonyl)-piperidine-1-carbonyl]-amino}-benzoic Acid]?
IC50 [1]: 0.472 nM; IC50 [2]: 0.192 nM; EC50 [3]: 3.1e-07 M
